Test results reported in patent US11753407B2, “Compounds for treating spinal muscular atrophy” (PTC Therapeutics, Inc., priority 2012, dated 2023).

How the values were obtained:
[1] = tested on: SMN2 minigene mRNA (SMN2-A minigene) in HEK293H cells; assay: SMN2 minigene mRNA splicing RT-qPCR assay in cultured cells; format: cell-based, human; settings: Homo sapiens, HEK293-H; concentration increasing full length SMN2 mRNA 1.5-fold relative to vehicle-treated cells; HEK293H cells with SMN2-A minigene, 24 hours, 7-point concentration data; read-out: EC1.5x for production of full length SMN2 mRNA
Procedure: The reverse transcription-quantitative PCR-based (RT-qPCR) assay is used to quantify the level of the full length SMN2 minigene mRNA containing SMN2 exon 7 in a HEK293H cell line stably transfected with said minigene and treated with a test compound.
Protocol. HEK293H cells stably transfected with the SMN2-A minigene construct described above (10,000 cells/well) are seeded in 200 μL of cell culture medium (DMEM plus 10% FBS, with 200 μg/mL hygromycin) in 96-well flat-bottom plates and the plate is immediately swirled to ensure proper dispersal of cells, forming an even monolayer of cells. Cells are allowed to attach for at least 4-6 hours. Test compounds are serially diluted 3.16-fold in 100% DMSO to generate a 7-point concentration curve. A solution of test compound (1 μL, 200× in DMSO) is added to each cell-containing well and the plate is incubated for 24 hours in a cell culture incubator (37° C., 5% CO2, 100% relative humidity). 2 replicates are prepared for each test compound concentration. The cells are then lysed in Cells-To-Ct lysis buffer and the lysate is stored at −80° C.
Primer SMN Forward A (SEQ ID NO. 1) hybridizes to a nucleotide sequence in exon 7 (nucleotide 22 to nucleotide 40), primer SMN Reverse A (SEQ ID NO. 2) hybridizes to a nucleotide sequence in the coding sequence of Firefly luciferase, SMN Probe A (SEQ ID NO. 3) hybridizes to a nucleotide sequence in exon 7 (nucleotide 50 to nucleotide 54) and exon 8 (nucleotide 1 to nucleotide 21). The combination of these three oligonucleotides detects only SMN1 or SMN2 minigenes (RT-qPCR) and will not detect endogenous SMN1 or SMN2 genes.
The SMN forward and reverse primers are used at final concentrations of 0.4 μM. The SMN probe is used at a final concentration of 0.15 μM. The GAPDH primers are used at final concentrations of 0.2 μM and the probe at 0.15 μM.
The SMN2-minigene GAPDH mix (15 μL total volume) is prepared by combining 7.5 μL of 2× RT-PCR buffer, 0.4 μL of 25× RT-PCR enzyme mix, 0.75 μL of 20× GAPDH primer-probe mix, 4.0075 μL of water, 2 μL of 10-fold diluted cell lysate, 0.06 μL of 100 μM SMN forward primer, 0.06 μL of 100 μM SMN reverse primer, and […].
PCR is carried out at the following temperatures for the indicated time: Step 1: 48° C. (15 min); Step 2: 95° C. (10 min); Step 3: 95° C. (15 sec); Step 4: 60° C. (1 min); then repeat Steps 3 and 4 for a total of 40 cycles.
Each reaction mixture contains both SMN2-A minigene and GAPDH primers/probe sets (multiplex design), allowing simultaneous measurement of the levels of two transcripts.
Two SMN spliced products are generated from the SMN2 minigene. The first spliced product containing exon 7, corresponding to full length SMN2 mRNA, is referred to herein using the term “SMN2 minigene FL.” The second spliced product lacking exon 7 is referred to herein using the term “SMN2 minigene Δ7.”
The increase of SMN2 minigene FL mRNA relative to that in cells treated with vehicle control is determined from real-time PCR data using a modified ΔΔCt method (as described in Livak and Schmittgen, Methods, 2001, 25:402-8). The amplification efficiency (E) is calculated from the slope of the amplification curve for SMN2 minigene FL and GAPDH individually. The abundances of SMN2 minigene FL and GAPDH are then calculated as (1+E)^−Ct, where Ct is the threshold value for each amplicon. The abundance of SMN2 minigene FL is normalized to GAPDH abundance. The normalized SMN2 minigene FL abundance from test compound-treated samples is then divided by normalized SMN2 minigene FL abundance from vehicle-treated cells to determine the level of SMN2 FL mRNA relative to vehicle control.
For compounds of Formula (I) or a form thereof disclosed herein, Table 4 provides the […] for production of full length SMN2 mRNA that was obtained from the 7-point concentration data generated for each test compound according to the procedure of Biological Example 2. […]

[2] = tested on: Smn protein in SMA patient fibroblast cells (GM03813); assay: Smn protein assay in cultured cells (SMN HTRF); format: cell-based, human; settings: SMA patient fibroblast cells, 48 hours; for maximum fold (Fold) increase of Smn protein: 7-point concentration data, fold relative to vehicle control; for EC1.5x for Smn protein expression: 7-point concentration curve, SMN HTRF, concentration producing 1.5 times Smn protein vs DMSO vehicle control
Procedure: The SMN HTRF (homogeneous time resolved fluorescence) assay is used to quantify the level of Smn protein in SMA patient fibroblast cells treated with test compounds.
Protocol. Cells are thawed and cultured in DMEM-10% FBS for 72 hours. Cells are trypsinized, counted and re-suspended to a concentration of 25,000 cells/mL in DMEM-10% FBS. The cell suspension is plated at 5,000 cells per well in a 96 well microtiter plate and incubated for 3 to 5 hours. […] Test compounds are serially diluted 3.16-fold in 100% DMSO to generate a 7-point concentration curve. 1 μL of test compound solution is transferred to cell-containing wells and cells are incubated for 48 hours in a cell culture incubator (37° C., 5% CO2, 100% relative humidity). Triplicate samples are set up for each test compound concentration. After 48 hours, the supernatant is removed from the wells and 25 μL of the RIPA lysis buffer, containing protease inhibitors, is added to the wells and incubated with shaking at room temperature for 1 hour. 25 μL of the diluent is added and then 35 μL of the resulting lysate is transferred to a 384-well plate, where each well contains 5 μL of the antibody solution (1:100 dilution of anti-SMN d2 and anti-SMN kryptate in SMN reconstitution buffer). The plate is centrifuged for 1 minute to bring the solution to the bottom of the wells, then incubated overnight at room temperature. Fluorescence for each well of the plate at 665 nm and 620 nm is measured on an EnVision multilabel plate reader (Perkin-Elmer).
The normalized fluorescence signal is calculated for each sample, Blank and vehicle control well by dividing the signal at 665 nm by the signal at 620 nm. Normalizing the signal accounts for possible fluorescence quenching due to the matrix effect of the lysate. The ΔF value (a measurement of Smn protein abundance as a percent value) for each sample well is calculated by subtracting the normalized average fluorescence for the Blank control wells from the normalized fluorescence for each sample well, then dividing this difference by the normalized average fluorescence for the Blank control wells and multiplying the resulting value by 100. The ΔF value for each sample well represents the Smn protein abundance from test compound-treated samples. The ΔF value for each sample well is divided by the ΔF value for the vehicle control wells to calculate the fold increase in Smn protein abundance relative to the vehicle control.
For compounds of Formula (I) or a form thereof disclosed herein, Table 9 provides the EC1.5× for Smn protein expression that was obtained from the 7-point concentration data generated for each test compound according to the procedure of Biological Example 7. The term “EC1.5× for Smn protein expression” is defined as that concentration of test compound that is effective in producing 1.5 times the amount of Smn protein in an SMA patient fibroblast cell compared to the amount produced from the DMSO vehicle control. An EC1.5× for Smn protein expression between >3 μM and ≤10 μM is indicated by one star (*), an EC1.5× between >1 μM and ≤3 μM is indicated by two stars (**), an EC1.5× between >0.3 μM and ≤1 μM is indicated by three stars (***) and an EC1.5x≤0.3 μM is indicated by four stars (****).
For compounds of Formula (I) or a form thereof disclosed herein, Table 10 provides the maximum fold (Fold) increase of Smn protein that was obtained from the 7-point concentration data generated for each test compound according to the procedure of Biological Example 7. A maximum fold increase of ≤1.2 is indicated by one star (*), a fold increase between >1.2 and ≤1.35 is indicated by two stars (**), a fold increase between >1.35 and ≤1.5 is indicated by three stars (***), a fold increase between >1.5 and ≤1.65 is indicated by four stars (****) and a fold increase >1.65 is indicated by five stars (*****).

Question: Which EC (1.5-fold increase) [1] does the source give for COc1ccc(-c2cc(=O)n3cc(N4CCCNCC4)ccc3n2)cc1OC [Compound 10, 7-(1,4-diazepan-1-yl)-2-(3,4-dimethoxyphenyl)-4H-pyrido[1,2-a]pyrimidin-4-one] here?
Answer: 1 to 3 µM

Question: What about the “maximum fold (Fold) increase of Smn protein” value (from here on “maximum fold (Fold) increase”) [2] of the same compound?
Answer: ** (a fold increase between >1.2 and ≤1.35 is indicated by two stars (**))

Question: Which EC (1.5-fold increase) [1] does the source give for COc1ccc(-c2cc(=O)n3cc(N4CCNC(C)(C)C4)ccc3n2)cc1 [Compound 17, 7-(3,3-dimethylpiperazin-1-yl)-2-(4-methoxyphenyl)-4H-pyrido[1,2-a]pyrimidin-4-one] here?
Answer: 1 to 3 µM

Question: What about the “maximum fold (Fold) increase” value [2] of the same compound?
Answer: * (A maximum fold increase of ≤1.2 is indicated by one star (*))

Question: How did the EC (1.5-fold increase) [1] turn out when COc1cccc(-c2cc(=O)n3cc(N4CCCNCC4)ccc3n2)c1 [Compound 27, 7-(1,4-diazepan-1-yl)-2-(3-methoxyphenyl)-4H-pyrido[1,2-a]pyrimidin-4-one] was run?
Answer: 3 to 30 µM

Question: What about the “maximum fold (Fold) increase” value [2] of the same compound?
Answer: * (A maximum fold increase of ≤1.2 is indicated by one star (*))

Question: Which results are given for O=c1cc(-c2cc(F)c(O)c(F)c2)nc2ccc(N3CCNCC3)cn12 [Compound 71, 2-(3,5-difluoro-4-hydroxyphenyl)-7-(piperazin-1-yl)-4H-pyrido[1,2-a]pyrimidin-4-one]?
Answer: EC (1.5-fold increase) [1]: 1 to 3 µM; EC1.5x for Smn protein expression [2]: * (An EC1.5× for Smn protein expression between >3 μM and ≤10 μM is indicated by one star (*)); maximum fold (Fold) increase of Smn protein [2]: **** (a fold increase between >1.5 and ≤1.65 is indicated by four stars (****))

Question: With O=c1cc(-c2cc(F)cc(C(F)(F)F)c2)nc2ccc(N3CCNCC3)cn12 [Compound 76, 2-[3-fluoro-5-(trifluoromethyl)phenyl]-7-(piperazin-1-yl)-4H-pyrido[1,2-a]pyrimidin-4-one] as the compound, how does the EC (1.5-fold increase) [1] read?
Answer: 0.3 to 1 µM

Question: And the “maximum fold (Fold) increase” value [2]?
Answer: ** (a fold increase between >1.2 and ≤1.35 is indicated by two stars (**))

Question: For COc1ccc(-c2cc(=O)n3cc(N4CCNCC4)ccc3n2)cc1OC(F)F [Compound 99, 2-[3-(difluoromethoxy)-4-methoxyphenyl]-7-(piperazin-1-yl)-4H-pyrido[1,2-a]pyrimidin-4-one], which EC (1.5-fold increase) [1] is on record?
Answer: 0.3 to 1 µM

Question: And the “EC1.5x for Smn protein expression” value [2]?
Answer: *** (an EC1.5× between >0.3 μM and ≤1 μM is indicated by three stars (***))

Question: What about the “maximum fold (Fold) increase” value [2] of the same compound?
Answer: **** (a fold increase between >1.5 and ≤1.65 is indicated by four stars (****))

Question: For O=c1cc(-c2ccc3nccn3c2)nc2ccc(N3CCNCC3)cn12 [Compound 108, 2-(imidazo[1,2-a]pyridin-6-yl)-7-(piperazin-1-yl)-4H-pyrido[1,2-a]pyrimidin-4-one], which EC (1.5-fold increase) [1] is on record?
Answer: 0.1 to 0.3 µM

Question: And the “maximum fold (Fold) increase” value [2]?
Answer: *** (a fold increase between >1.35 and ≤1.5 is indicated by three stars (***))

Question: Which results are given for Cc1cn2cc(-c3cc(=O)n4cc(N5CCN(C)CC5)ccc4n3)ccc2n1 [Compound 114, 2-(2-methylimidazo[1,2-a]pyridin-6-yl)-7-(4-methylpiperazin-1-yl)-4H-pyrido[1,2-a]pyrimidin-4-one]?
Answer: EC (1.5-fold increase) [1]: 1 to 3 µM; maximum fold (Fold) increase of Smn protein [2]: *** (a fold increase between >1.35 and ≤1.5 is indicated by three stars (***))

Question: Which results are given for Cc1cn2cc(-c3cc(=O)n4cc(N5CCN[C@@H](C)C5)ccc4n3)ccc2n1 [Compound 115, 2-(2-methylimidazo[1,2-a]pyridin-6-yl)-7-[(3S)-3-methylpiperazin-1-yl]-4H-pyrido[1,2-a]pyrimidin-4-one]?
Answer: EC (1.5-fold increase) [1]: < 0.1 µM; EC1.5x for Smn protein expression [2]: **** (an EC1.5x≤0.3 μM is indicated by four stars (****)); maximum fold (Fold) increase of Smn protein [2]: **** (a fold increase between >1.5 and ≤1.65 is indicated by four stars (****))

Question: Which results are given for Cc1cn2cc(-c3cc(=O)n4cc(N5CCCNCC5)ccc4n3)ccc2n1 [Compound 116, 7-(1,4-diazepan-1-yl)-2-(2-methylimidazo[1,2-a]pyridin-6-yl)-4H-pyrido[1,2-a]pyrimidin-4-one]?
Answer: EC (1.5-fold increase) [1]: 0.1 to 0.3 µM; EC1.5x for Smn protein expression [2]: * (An EC1.5× for Smn protein expression between >3 μM and ≤10 μM is indicated by one star (*)); maximum fold (Fold) increase of Smn protein [2]: *** (a fold increase between >1.35 and ≤1.5 is indicated by three stars (***))

Question: How did the EC (1.5-fold increase) [1] turn out when Cc1cn2nc(-c3cc(=O)n4cc(N5CCNCC5)ccc4n3)cc2c(C)n1 [Compound 120, 2-(4,6-dimethylpyrazolo[1,5-a]pyrazin-2-yl)-7-(piperazin-1-yl)-4H-pyrido[1,2-a]pyrimidin-4-one] was run?
Answer: < 0.1 µM

Question: What about the “EC1.5x for Smn protein expression” value [2] of the same compound?
Answer: **** (an EC1.5x≤0.3 μM is indicated by four stars (****))

Question: What about the “maximum fold (Fold) increase” value [2] of the same compound?
Answer: ***** (a fold increase >1.65 is indicated by five stars (*****))
